This note sets out measurements from ChEMBL document CHEMBL2073761, “Celastraceae sesquiterpenes as a new class of modulators that bind specifically to human P-glycoprotein and reverse cellular multidrug resistance” (Cancer Res, 2004).

In this series the target is ATP-dependent translocase ABCB1 (Homo sapiens, UniProt P08183). Description: TP_TRANSPORTER: efflux of Tetramethylrosamine in membrane vesicles from reconstituted PMPC proteoliposomes containing P-glycoprotein. In kind it is functional, cell membranes, Membrane vesicle from reconstituted proteoliposome.
ATP-dependent translocase ABCB1, sequence (P08183 whole entry): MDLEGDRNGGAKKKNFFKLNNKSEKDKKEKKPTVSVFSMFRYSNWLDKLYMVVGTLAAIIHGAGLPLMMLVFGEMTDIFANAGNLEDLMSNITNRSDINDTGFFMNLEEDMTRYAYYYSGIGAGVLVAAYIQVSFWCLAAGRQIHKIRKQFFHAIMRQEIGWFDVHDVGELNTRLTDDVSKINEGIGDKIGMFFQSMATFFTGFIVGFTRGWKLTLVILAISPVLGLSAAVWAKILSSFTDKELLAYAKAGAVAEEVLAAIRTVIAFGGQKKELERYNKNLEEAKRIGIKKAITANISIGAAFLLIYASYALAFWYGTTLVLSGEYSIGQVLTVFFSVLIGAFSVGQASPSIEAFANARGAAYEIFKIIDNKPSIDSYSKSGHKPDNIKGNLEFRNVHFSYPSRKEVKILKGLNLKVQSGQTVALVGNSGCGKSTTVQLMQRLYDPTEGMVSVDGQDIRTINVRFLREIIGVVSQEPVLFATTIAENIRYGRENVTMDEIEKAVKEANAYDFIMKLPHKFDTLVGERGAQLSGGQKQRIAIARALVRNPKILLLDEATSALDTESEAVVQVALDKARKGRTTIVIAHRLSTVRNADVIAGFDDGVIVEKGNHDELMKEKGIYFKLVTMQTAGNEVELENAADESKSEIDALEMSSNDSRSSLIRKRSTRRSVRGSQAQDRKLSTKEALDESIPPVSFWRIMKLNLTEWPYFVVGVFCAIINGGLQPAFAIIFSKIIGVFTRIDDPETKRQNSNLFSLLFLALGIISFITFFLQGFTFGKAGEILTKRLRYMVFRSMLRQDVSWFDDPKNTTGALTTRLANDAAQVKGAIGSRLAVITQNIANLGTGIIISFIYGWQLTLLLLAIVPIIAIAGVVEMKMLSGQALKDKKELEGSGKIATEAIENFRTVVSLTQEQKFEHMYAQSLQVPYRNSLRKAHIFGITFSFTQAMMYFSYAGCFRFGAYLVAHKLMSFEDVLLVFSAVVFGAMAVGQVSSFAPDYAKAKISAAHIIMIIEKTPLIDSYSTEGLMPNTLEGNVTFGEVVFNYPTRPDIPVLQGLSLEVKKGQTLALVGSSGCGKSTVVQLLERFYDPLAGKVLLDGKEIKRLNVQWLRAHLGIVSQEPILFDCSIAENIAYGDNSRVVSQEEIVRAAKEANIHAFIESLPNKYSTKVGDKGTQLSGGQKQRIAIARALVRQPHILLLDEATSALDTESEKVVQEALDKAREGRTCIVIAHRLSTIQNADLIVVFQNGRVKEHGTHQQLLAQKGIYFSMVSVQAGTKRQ

`CN(C)c1ccc2c(-c3ccc(CCl)cc3)c3ccc(=[N+](C)C)cc-3oc2c1.[Br-]` [TETRAMETHYLROSAMINE]: the Activity result was “inhibitor [+]”.
